Measured values reported in patent US8741889B2, “Method of treating non-small cell lung cancer and colon cancer with gamma-secretase inhibitor” (Hoffmann-La Roche Inc, priority 2008, dated 2014).

Assays:
[1] = test system: AsPC1 human pancreatic carcinoma xenografts; assay: Antitumor efficacy in AsPC1 pancreatic xenografts in nude mice; format: in vivo
Method: Female (athymic nu/nu) nude mice were obtained from Charles River Laboratories (Wilmington, Mass.), while female SCID-beige mice were purchased from Taconic (Germantown, N.Y.). Mice were used when they were approximately 8-12 weeks old (nudes) or 8-10 weeks old (SCID-beige), and weighed approximately 23-25 grams. The health of all animals was determined daily by gross observation of experimental animals and by the analyses of blood samples of sentinel animals that were housed on the shared shelf racks. All animals were allowed to acclimate and recover from any shipping related stress for a minimum of 72 hours prior to experimental use. Autoclaved water and irradiated food [5058-ms Pico chow (mouse) Purina, Richmond, Ind.] were provided ad libitum, and the animals were maintained on a 12 hour light and dark cycle. Cages, bedding and water bottles were autoclaved before use and were changed weekly. MiaPaca2, AsPC1 and BxPC3 human pancreatic carcinoma cells were purchased from ATCC (Manassas, Va.). BxPC3 and AsPC1 cells were grown in RPMI medium and MiaPaca2 cells were grown in Dulbecco's Modified Essential Medium (DMEM). All culture media were supplemented with 10% (v/v) FBS and 1% (v/v) […]. […] SCID-biege mice were implanted se with 5×10^6 BxPC3 cells in a 1:1 mixture of matrigel:PBS in a volume of 0.2 ml per mouse in the right hind flank on May 22, 2007. […] Formulated compound and vehicle were stored at 4° C. and prepared weekly. The suspension was mixed vigorously prior to administration. Gemcitabine (Gemzar®, Eli Lilly and Company, Indianapolis, Ind., USA) was reconstituted with sterile saline to yield a stock solution of 38 mg/ml for the entire 3-4 week study. […] Nude mice implanted with MiaPaca2 or AsPC1 xenografts were randomized on day 17 and day 9 post cell implant, respectively. SCID-beige mice bearing BxPC3 xenografts were randomized 8 days post implant. […] Treatment for the MiaPaca2 study began on Feb. […] For the MiaPaca2 and AsPC1 studies, qd Compound (1) suspension or q3d gemcitabine treatment ended on day 37 post tumor cell implant, whereas for the BxPC3 study, qd Compound (1) suspension or q3d gemcitabine treatment ended on day 35 post tumor cell implant. For intermittent dosing of Compound (1) suspension in the AsPC1 study using the 7+/7− schedule×2 cycles, treatment ended on day 15, was reinitiated on day 23, and finally ended day 29. For intermittent dosing using the 3+/4− schedule×4 cycles, treatment ended on day 11, was reinitiated on day 16, ended day 18, was reinitiated on day 23, ended day 25, was reinitiated day 30, and finally ended on day 32. In the first combination group, daily Compound (1) was given simultaneously with q3d gemcitabine for a total of four weeks. For the remaining combination groups, Compound (1) and gemcitabine were given sequentially rather than simultaneously. In group 8 gemcitabine was dosed q3d during the 1st and 3rd weeks, whereas Compound (1) was given daily during the 2nd and 4th weeks only. In group 9, the order of compound dosing was reversed, with Compound (1) suspension given daily during the 1st and 3rd weeks, whereas gemcitabine was given q3d during the 2nd and 4th weeks. In group 10, gemcitabine was dosed q3d during the 1st and 2nd weeks, whereas Compound (1) was given daily during the 3rd and 4th weeks. In group 11, the order of compound dosing was reversed, with Compound (1) given daily during the 1st and 2nd weeks, and gemcitabine dosed q3d for the 3rd and 4th weeks. […]

[2] = test system: BxPC3 pancreatic xenografts; assay: Antitumor efficacy in BxPC3 pancreatic xenografts in SCID-beige mice; format: in vivo
Method: Female (athymic nu/nu) nude mice were obtained from Charles River Laboratories (Wilmington, Mass.), while female SCID-beige mice were purchased from Taconic (Germantown, N.Y.). Mice were used when they were approximately 8-12 weeks old (nudes) or 8-10 weeks old (SCID-beige), and weighed approximately 23-25 grams. The health of all animals was determined daily by gross observation of experimental animals and by the analyses of blood samples of sentinel animals that were housed on the shared shelf racks. All animals were allowed to acclimate and recover from any shipping related stress for a minimum of 72 hours prior to experimental use. Autoclaved water and irradiated food [5058-ms Pico chow (mouse) Purina, Richmond, Ind.] were provided ad libitum, and the animals were maintained on a 12 hour light and dark cycle. Cages, bedding and water bottles were autoclaved before use and were changed weekly. MiaPaca2, AsPC1 and BxPC3 human pancreatic carcinoma cells were purchased from ATCC (Manassas, Va.). BxPC3 and AsPC1 cells were grown in RPMI medium and MiaPaca2 cells were grown in Dulbecco's Modified Essential Medium (DMEM). All culture media were supplemented with 10% (v/v) FBS and 1% (v/v) […]. […] SCID-biege mice were implanted se with 5×10^6 BxPC3 cells in a 1:1 mixture of matrigel:PBS in a volume of 0.2 ml per mouse in the right hind flank on May 22, 2007. […] Formulated compound and vehicle were stored at 4° C. and prepared weekly. The suspension was mixed vigorously prior to administration. Gemcitabine (Gemzar®, Eli Lilly and Company, Indianapolis, Ind., USA) was reconstituted with sterile saline to yield a stock solution of 38 mg/ml for the entire 3-4 week study. […] Nude mice implanted with MiaPaca2 or AsPC1 xenografts were randomized on day 17 and day 9 post cell implant, respectively. SCID-beige mice bearing BxPC3 xenografts were randomized 8 days post implant. […] Treatment for the MiaPaca2 study began on Feb. […] For the MiaPaca2 and AsPC1 studies, qd Compound (1) suspension or q3d gemcitabine treatment ended on day 37 post tumor cell implant, whereas for the BxPC3 study, qd Compound (1) suspension or q3d gemcitabine treatment ended on day 35 post tumor cell implant. Efficacy data was graphically represented as the mean tumor volume+standard error of the mean (SEM). Tumor volumes of treated groups were presented as percentages of tumor volumes of the control groups (% T/C), using the formula: 100×((T−T0)/(C−C0)), where T represented mean tumor volume of a treated group on a specific day during the experiment, T0 represented mean tumor volume of the same treated group on the first day of treatment; C represented mean tumor volume of a control group on the specific day during the experiment, and C0 represented mean tumor volume of the same treated group on the first day of treatment. Tumor volume (in cubic millimeters) was calculated using the ellipsoid formula: (D×(d2))/2 where ‘D’ represents the large diameter of the tumor, and ‘d’ represents the small diameter. In some cases, tumor regression and/or percent change in tumor volume was calculated using the formula: ((T−T0)/T0)×100 where ‘T’ represents mean tumor volume of the treated group at a particular day, and ‘T0’ represents mean tumor volume of the same treated group at initiation of treatment. Statistical analysis was determined by the rank sum test and One Way Anova and a post-hoc Bonferroni t-test (SigmaStat, version 2.0, Jandel Scientific, San Francisco, Calif.). Differences between groups were considered to be significant when the probability value (p) was ≦0.05.

CC(C)(C(=O)NCC(F)(F)C(F)(F)F)C(=O)N[C@@H]1C(=O)Nc2ccccc2-c2ccccc21 [Compound (1), 2,2-Dimethyl-N—((S)-6-oxo-6,7-dihydro-5H-dibenzo[b,d]azepin-7-yl)-N′-(2,2,3,3,3-pentafluoro-propyl)-malonamide]
% TGI ([1]; 3 mg/kg po qd × 28 days, day 37): 49%
% TGI ([1]; 10 mg/kg po qd × 28 days, day 37): 58%
% TGI ([1]; 10 mg/kg po, 3+/4− × 4 cycles): 32%
% TGI ([1]; 10 mg/kg po, 7+/7− × 2 cycles): 41%
% TGI ([2]; 3 mg/kg po qd, day 35): 72%
% TGI ([2]; 10 mg/kg po qd, day 35): 82%
% TGI ([2]; 10 mg/kg po, 3+/4− schedule): 56%
% TGI ([2]; 20 mg/kg po, 7+/7− schedule): 63%
% TGI ([2]; 23 mg/kg po, 3+/4− schedule): 64%
% TGI ([2]; 30 mg/kg po, 3+/4− schedule): 50%
